What was measured:
B-RAF V600E = target: T1, B-RAF V600E (Homo sapiens, UniProt P15056, V600E); assay: Target protein degradation, assay C: T-Rex 293 cells, HA-BRAF_V600E, 384 well format; assay type: cell-based; conditions: T-Rex 293 HA-BRAF_V600E cells, 24 hours, Examples 83-269; for DC50: Assay C; for Dmax: T-REx-293, Assay C
T1 construct: expressed in transfected cells; host or cells: T-Rex 293 cells (Invitrogen #R71007)
Summary of the method: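 After 24 h exposure to an 11-point 1:3 series (300 nM–5 pM, 0.5% DMSO), fixed T-Rex 293 cells carrying HA-BRAF V600E (induced with 1 ng/mL doxycycline) were stained anti-HA and imaged. DC50 and Dmax were derived from BRAF intensity relative to control, and cytotoxicity from nuclear counts.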

B-RAF G466V = target: T2, B-RAF G466V (Homo sapiens, UniProt P15056, G466V); assay: Target protein degradation, assay D: T-Rex 293 cells, HA-BRAF_G466V, 384 well format; assay type: cell-based; conditions: T-Rex 293 HA-BRAF_G466V cells, 24 hours, Examples 83-269; for DC50: Assay D; for Dmax: T-REx-293, Assay D
T2 construct: expressed in transfected cells; host or cells: T-Rex 293 cells (Invitrogen #R71007)
T2 sequence (P15056 whole entry G466V): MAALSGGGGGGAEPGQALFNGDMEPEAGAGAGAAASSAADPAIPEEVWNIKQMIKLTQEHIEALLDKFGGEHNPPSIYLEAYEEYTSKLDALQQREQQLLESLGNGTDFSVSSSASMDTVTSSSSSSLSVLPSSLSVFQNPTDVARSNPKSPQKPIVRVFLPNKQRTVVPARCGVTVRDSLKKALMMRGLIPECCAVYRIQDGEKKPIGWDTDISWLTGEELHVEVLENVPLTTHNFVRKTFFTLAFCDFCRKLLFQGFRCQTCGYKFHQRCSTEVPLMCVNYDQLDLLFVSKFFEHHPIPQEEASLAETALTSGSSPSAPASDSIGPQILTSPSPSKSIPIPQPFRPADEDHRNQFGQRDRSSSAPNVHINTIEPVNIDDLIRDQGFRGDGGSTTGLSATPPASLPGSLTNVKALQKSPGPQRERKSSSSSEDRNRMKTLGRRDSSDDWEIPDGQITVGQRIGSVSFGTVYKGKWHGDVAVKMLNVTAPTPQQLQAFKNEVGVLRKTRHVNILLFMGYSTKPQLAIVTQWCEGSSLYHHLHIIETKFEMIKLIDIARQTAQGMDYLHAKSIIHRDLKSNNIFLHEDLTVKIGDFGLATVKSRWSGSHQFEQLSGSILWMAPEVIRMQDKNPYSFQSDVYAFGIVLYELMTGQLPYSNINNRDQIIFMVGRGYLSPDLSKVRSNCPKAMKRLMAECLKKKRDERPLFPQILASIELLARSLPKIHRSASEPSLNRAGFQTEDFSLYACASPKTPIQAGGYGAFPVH
Summary of the method: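 Degradation measured by high-content imaging of anti-HA immunofluorescence in fixed T-Rex 293 cells carrying inducible HA-BRAF G466V (1 ng/mL doxycycline), after 24 h PROTAC exposure at 37 °C over 300 nM–5 pM (1:3, 11 points, 0.5% DMSO). Outputs DC50 and Dmax as % of control; nuclei counts against DMSO wells gauge toxicity.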

T1 sequence (P15056 whole entry V600E): as the sequence (P15056 whole entry G466V) above, with V466G, V600E counted along it

| DC50 (B-RAF V600E) [nM] | Dmax (B-RAF V600E) [%] | DC50 (B-RAF G466V) [nM] | Dmax (B-RAF G466V) [%] | SMILES |
| --- | --- | --- | --- | --- |
| 50 to 500 | 35 to 70 | 1 to 10 | 35 to 70 | Cn1c(=O)n(C2CCC(=O)NC2=O)c2cccc(N3CC(CN4CCN(c5ccc(-n6cnc7ccc(Oc8c(F)ccc(NS(=O)(=O)N9CC[C@@H](F)C9)c8C#N)cc7c6=O)cc5)CC4)C3)c21 (stereo partly drawn) [Example 218, (3R)-N-{2-cyano-3-[(3-{4-[4-({1-[1-(2,6-dioxopiperidin-3-yl)-3-methyl-2-oxo-2,3-dihydro-1H-1,3-benzodiazol-4-yl]azetidin-3-yl}methyl)piperazin-1-yl]phenyl}-4-oxo-3,4-dihydroquinazolin-6-yl)oxy]-4-fluorophenyl}-3-fluoropyrrolidine-1-sulfonamide] |
| 5 to 50 | 35 to 70 | 1 to 10 | ≤ 35 | N#Cc1c(NS(=O)(=O)N2CC[C@@H](F)C2)ccc(F)c1Oc1ccc2ncn(-c3cnc(C4(N5CCN(CC6CN(c7ccc(C8CCC(=O)NC8=O)cc7F)C6)CC5)CC4)nc3)c(=O)c2c1 (stereo partly drawn) [Example 105, (3R)-N-(2-cyano-3-{[3-(2-{1-[4-({1-[4-(2,6-dioxopiperidin-3-yl)-2-fluorophenyl]azetidin-3-yl}methyl)piperazin-1-yl]cyclopropyl}pyrimidin-5-yl)-4-oxo-3,4-dihydroquinazolin-6-yl]oxy}-4-fluorophenyl)-3-fluoropyrrolidine-1-sulfonamide] |
| 50 to 500 | 35 to 70 | 10 to 30 | 35 to 70 | N#Cc1c(NS(=O)(=O)N2CC[C@@H](F)C2)ccc(F)c1Oc1ccc2ncn(-c3ccc(N4CCC(OC5CC6(C5)CN(c5ccc7c(c5)CN(C5CCC(=O)NC5=O)C7=O)C6)CC4)cc3)c(=O)c2c1 (stereo partly drawn) [Example 178, (3R)—N-{2-cyano-3-[(3-{4-[4-({2-[2-(2,6-dioxopiperidin-3-yl)-1-oxo-2,3-dihydro-1H-isoindol-5-yl]-2-azaspiro[3.3]heptan-6-yl}oxy)piperidin-1-yl]phenyl}-4-oxo-3,4-dihydroquinazolin-6-yl)oxy]-4-fluorophenyl}-3-fluoropyrrolidine-1-sulfonamide] |
| 50 to 500 | 35 to 70 | 1 to 10 | ≥ 70 | COc1cc(N2CC(CN3CCN(c4ccc(-n5cnc6ccc(Oc7c(F)ccc(NS(=O)(=O)N8CC[C@@H](F)C8)c7C#N)cc6c5=O)cc4)CC3)C2)cc2c1C(=O)N([C@@H]1CCC(=O)NC1=O)C2 [Example 237, (3R)-N-(2-cyano-3-{[3-(4-{4-[(1-{2-[(3R)-2,6-dioxopiperidin-3-yl]-7-methoxy-1-oxo-2,3-dihydro-1H-isoindol-5-yl}azetidin-3-yl)methyl]piperazin-1-yl}phenyl)-4-oxo-3,4-dihydroquinazolin-6-yl]oxy}-4-fluorophenyl)-3-fluoropyrrolidine-1-sulfonamide] |
| 50 to 500 | ≤ 35 | 1 to 10 | 35 to 70 | N#Cc1c(NS(=O)(=O)N2CC[C@@H](F)C2)ccc(F)c1Oc1ccc2ncn(-c3ccc(C4CCC5(CC4)CCN(CC4CCN(c6ccc7c(c6)CN([C@H]6CCC(=O)NC6=O)C7=O)CC4)CC5)cc3)c(=O)c2c1 [Example 226, (3R)-N-(2-cyano-3-{[3-(4-{3-[(1-{2-[(3S)-2,6-dioxopiperidin-3-yl]-1-oxo-2,3-dihydro-1H-isoindol-5-yl}piperidin-4-yl)methyl]-3-azaspiro[5.5]undecan-9-yl}phenyl)-4-oxo-3,4-dihydroquinazolin-6-yl]oxy}-4-fluorophenyl)-3-fluoropyrrolidine-1-sulfonamide] |
| 50 to 500 | 35 to 70 | 1 to 10 | ≤ 35 | N#Cc1c(NS(=O)(=O)N2CC[C@@H](F)C2)ccc(F)c1Oc1ccc2ncn(-c3ccc(N4CC(CC5CN(c6ccc7c(c6)C(=O)N(C6CCC(=O)NC6=O)C7=O)C5)C4)nc3)c(=O)c2c1 (stereo partly drawn) [Example 159, (3R)-N-{2-cyano-3-[(3-{6-[3-({1-[2-(2,6-dioxopiperidin-3-yl)-1,3-dioxo-2,3-dihydro-1H-isoindol-5-yl]azetidin-3-yl}methyl)azetidin-1-yl]pyridin-3-yl}-4-oxo-3,4-dihydroquinazolin-6-yl)oxy]-4-fluorophenyl}-3-fluoropyrrolidine-1-sulfonamide] |
| 50 to 500 | 35 to 70 | 1 to 10 | 35 to 70 | O=C1CCC(N2Cc3cc(N4CCC(CN5CCN(c6ccc(-n7cnc8ccc(Oc9c(F)ccc(NS(=O)(=O)N%10CC[C@@H](F)C%10)c9Cl)cc8c7=O)cc6)CC5)CC4)ccc3C2=O)C(=O)N1 (stereo partly drawn) [Example 199, (3R)-N-{2-chloro-3-[(3-{4-[4-({1-[2-(2,6-dioxopiperidin-3-yl)-1-oxo-2,3-dihydro-1H-isoindol-5-yl]piperidin-4-yl}methyl)piperazin-1-yl]phenyl}-4-oxo-3,4-dihydroquinazolin-6-yl)oxy]-4-fluorophenyl}-3-fluoropyrrolidine-1-sulfonamide] |
| 50 to 500 | 35 to 70 | 1 to 10 | 35 to 70 | CCN(C)S(=O)(=O)Nc1ccc(F)c(Oc2ccc3ncn(-c4ccc(N5CCN(CC6CCN(c7ccc8c(c7)CN(C7CCC(=O)NC7=O)C8=O)CC6)CC5)cc4)c(=O)c3c2)c1C#N (centres unmarked) [Example 109, 2-[(3-{4-[4-({1-[2-(2,6-dioxopiperidin-3-yl)-1-oxo-2,3-dihydro-1H-isoindol-5-yl]piperidin-4-yl}methyl)piperazin-1-yl]phenyl}-4-oxo-3,4-dihydroquinazolin-6-yl)oxy]-6-{[ethyl(methyl)sulfamoyl]amino}-3-fluorobenzonitrile] |
| 50 to 500 | 35 to 70 | 1 to 10 | 35 to 70 | Cc1cc(N2CC(CN3CCN(c4ccc(-n5cnc6ccc(Oc7c(F)ccc(NS(=O)(=O)N8CC[C@@H](F)C8)c7C#N)cc6c5=O)cc4)CC3)C2)cc2c1C(=O)N([C@H]1CCC(=O)NC1=O)C2 [Example 234, (3R)-N-(2-cyano-3-{[3-(4-{4-[(1-{2-[(3S)-2,6-dioxopiperidin-3-yl]-7-methyl-1-oxo-2,3-dihydro-1H-isoindol-5-yl}azetidin-3-yl)methyl]piperazin-1-yl}phenyl)-4-oxo-3,4-dihydroquinazolin-6-yl]oxy}-4-fluorophenyl)-3-fluoropyrrolidine-1-sulfonamide] |
| 50 to 500 | 35 to 70 | 1 to 10 | 35 to 70 | N#Cc1c(NS(=O)(=O)N2CC[C@@H](F)C2)ccc(F)c1Oc1ccc2ncn(-c3ccc(N4CCN(CCN5CCC(c6ccc7c(c6)CN(C6CCC(=O)NC6=O)C7=O)CC5)CC4)cc3)c(=O)c2c1 (stereo partly drawn) [Example 176, (3R)—N-{2-cyano-3-[(3-{4-[4-(2-{4-[2-(2,6-dioxopiperidin-3-yl)-1-oxo-2,3-dihydro-1H-isoindol-5-yl]piperidin-1-yl}ethyl)piperazin-1-yl]phenyl}-4-oxo-3,4-dihydroquinazolin-6-yl)oxy]-4-fluorophenyl}-3-fluoropyrrolidine-1-sulfonamide] |
| 50 to 500 | 35 to 70 | 1 to 10 | 35 to 70 | N#Cc1c(NS(=O)(=O)N2CC[C@H](F)C2)ccc(F)c1Oc1ccc2ncn(-c3ccc(N4CCN(CC5CN(c6ccc7c(c6)CN([C@@H]6CCC(=O)NC6=O)C7=O)C5)CC4)cc3)c(=O)c2c1 [Example 196, (3S)-N-(2-cyano-3-{[3-(4-{4-[(1-{2-[(3R)-2,6-dioxopiperidin-3-yl]-1-oxo-2,3-dihydro-1H-isoindol-5-yl}azetidin-3-yl)methyl]piperazin-1-yl}phenyl)-4-oxo-3,4-dihydroquinazolin-6-yl]oxy}-4-fluorophenyl)-3-fluoropyrrolidine-1-sulfonamide] |
